The target in assay [1] is Low molecular weight phosphotyrosine protein phosphatase (Homo sapiens, UniProt P24666). Format: functional. To be noted: read-out: IC50_Mean.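 Also: Dose-response confirmation assay measuring inhibition of LMPTP enzyme activity by fluorescence intensity read-out.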
The next assay has as its system Escherichia coli. The assay is described as follows: microbe, parasite or virus in culture.
Assay [2] addresses T1, Melanocortin receptor 4 (Homo sapiens, UniProt P32245). It is filed as functional, cell-based.
The target in a further assay is Prothrombin (Bos taurus, UniProt P00735). Kind of assay: thrombin protease inhibitors – biochemical, fluorescence polarization, uHTS hits, dose response (AID 602369). Format: functional.
Assay [3] deals with 72 kDa type IV collagenase (Homo sapiens, UniProt P08253). The assay is described as follows: Dose Response validation of uHTS RPN11 inhibitor hits using a MMP-2 Fluorescence assay. Format: functional.
Assay [4] addresses T2, Carboxy-terminal domain RNA polymerase II polypeptide A small phosphatase 1 (Homo sapiens, UniProt Q9GZU7).
T2 sequence (Q9GZU7 whole entry): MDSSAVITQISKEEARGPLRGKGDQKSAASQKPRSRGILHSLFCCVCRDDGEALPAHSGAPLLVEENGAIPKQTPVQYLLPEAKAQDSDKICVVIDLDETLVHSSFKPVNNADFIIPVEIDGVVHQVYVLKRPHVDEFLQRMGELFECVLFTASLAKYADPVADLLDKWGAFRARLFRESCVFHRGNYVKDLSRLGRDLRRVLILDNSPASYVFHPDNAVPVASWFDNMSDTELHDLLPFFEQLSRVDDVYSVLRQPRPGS
The assay is described as follows: CTDSP1 inhibitors, concentration-response, biochemical, absorbance readout, ultra-high-throughput screen actives (AID 540297). Format: functional.

For assay [5], the target named is 26S proteasome non-ATPase regulatory subunit 14 (Homo sapiens, UniProt O00487). Kind of assay: inhibition of proteasome subunit RPN11 – biochemical, fluorescence polarization, uHTS hits, confirmation (AID 602368). Format: functional.
For another assay, the target named is T3, Streptokinase A (Streptococcus pyogenes serotype M1, UniProt P10520).
T3 sequence (P10520 whole entry): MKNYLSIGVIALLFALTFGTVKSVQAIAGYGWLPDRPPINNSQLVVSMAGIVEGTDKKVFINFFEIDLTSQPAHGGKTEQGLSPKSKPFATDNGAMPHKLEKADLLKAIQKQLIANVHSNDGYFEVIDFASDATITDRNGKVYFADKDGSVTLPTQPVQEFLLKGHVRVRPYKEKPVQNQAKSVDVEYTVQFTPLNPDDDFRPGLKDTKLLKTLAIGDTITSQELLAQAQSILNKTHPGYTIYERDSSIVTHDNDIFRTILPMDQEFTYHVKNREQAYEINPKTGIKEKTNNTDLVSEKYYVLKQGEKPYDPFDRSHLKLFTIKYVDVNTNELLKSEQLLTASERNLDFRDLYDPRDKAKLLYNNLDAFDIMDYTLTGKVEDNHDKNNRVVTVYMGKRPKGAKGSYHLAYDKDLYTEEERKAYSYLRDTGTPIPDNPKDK
The assay is described as follows: viability-normalized secreted streptokinase activity reduction – plasminogen activation absorbance, OD405, dose response (AID 1914).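 Also: secreted streptokinase activity via plasminogen activation per viability signal from cell pellet.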 It is filed as functional, Streptococcus pyogenes M1 GAS.

Assay [6] is described as follows: cAMP pathway inhibition in counterscreen cell line – TR-FRET cAMP detection, counter-screen for MC4R biased antagonist project, dose response (AID 602305).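 Also: U2OS cells stimulated with forskolin near its EC80 as the cAMP inducer; potency is for inhibition of forskolin-stimulated cAMP signaling.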 It is filed as functional, cell-based. For orientation: The purpose of a counterscreen is to sort out artefacts and off-target activity.
Assay [7] addresses T1, Melanocortin receptor 4. Kind of assay: inhibitors of MC4R cAMP signaling – cell-based, TR-FRET, biased antagonists, dose response (AID 602298).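 Also: antagonist potency against agonist-stimulated cAMP production.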 Format: functional. (TR-FRET usually uses a lanthanide donor and a delayed reading to cut background.)
Assay [8] relates to Streptococcus sp. 'group A'. The assay is described as follows: Streptococcus pyogenes SK(-)GAS viability under kanamycin – luminescence, BacTiterGlo, confirmation, counter-screen for streptokinase expression inhibitor project, dose response (AID 1900). It is filed as functional, organism-based. Particulars: Streptococcus sp. 'group A'.
A further assay deals with Streptococcus. The assay is described as follows: GAS UMAA2166 growth inhibition – luminescence, BacTiterGlo, counter-screen for streptokinase expression inhibitor project, dose response (AID 1915).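 Also: potency for reduction of bacterial viability or growth.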 It is filed as functional, organism-based. To be noted: Streptococcus.
A further assay concerns the target Large T antigen (Simian virus 40, UniProt P03070). Format: functional, Betapolyomavirus macacae.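 Also: Confirmatory-stage PubChem screen for compounds that inhibit SV40 T antigen.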
The target in another assay is Genome polyprotein (dengue virus type 2, UniProt P29990). Kind of assay: flavivirus cap methylation enzyme inhibition – biochemical, confirmation dose response, primary screen (AID 588689). It is filed as functional.
For assay [9], the target named is DNA (cytosine-5)-methyltransferase 1 (Homo sapiens, UniProt P26358). Kind of assay: inhibition of DNA methylation by DNMT1 – biochemical, fluorescent molecular beacon, confirmation (AID 602386). Format: functional.
Assay [10] has as its target T4, Histone-lysine N-methyltransferase NSD2 (Homo sapiens, UniProt O96028).
T4 sequence (O96028 whole entry): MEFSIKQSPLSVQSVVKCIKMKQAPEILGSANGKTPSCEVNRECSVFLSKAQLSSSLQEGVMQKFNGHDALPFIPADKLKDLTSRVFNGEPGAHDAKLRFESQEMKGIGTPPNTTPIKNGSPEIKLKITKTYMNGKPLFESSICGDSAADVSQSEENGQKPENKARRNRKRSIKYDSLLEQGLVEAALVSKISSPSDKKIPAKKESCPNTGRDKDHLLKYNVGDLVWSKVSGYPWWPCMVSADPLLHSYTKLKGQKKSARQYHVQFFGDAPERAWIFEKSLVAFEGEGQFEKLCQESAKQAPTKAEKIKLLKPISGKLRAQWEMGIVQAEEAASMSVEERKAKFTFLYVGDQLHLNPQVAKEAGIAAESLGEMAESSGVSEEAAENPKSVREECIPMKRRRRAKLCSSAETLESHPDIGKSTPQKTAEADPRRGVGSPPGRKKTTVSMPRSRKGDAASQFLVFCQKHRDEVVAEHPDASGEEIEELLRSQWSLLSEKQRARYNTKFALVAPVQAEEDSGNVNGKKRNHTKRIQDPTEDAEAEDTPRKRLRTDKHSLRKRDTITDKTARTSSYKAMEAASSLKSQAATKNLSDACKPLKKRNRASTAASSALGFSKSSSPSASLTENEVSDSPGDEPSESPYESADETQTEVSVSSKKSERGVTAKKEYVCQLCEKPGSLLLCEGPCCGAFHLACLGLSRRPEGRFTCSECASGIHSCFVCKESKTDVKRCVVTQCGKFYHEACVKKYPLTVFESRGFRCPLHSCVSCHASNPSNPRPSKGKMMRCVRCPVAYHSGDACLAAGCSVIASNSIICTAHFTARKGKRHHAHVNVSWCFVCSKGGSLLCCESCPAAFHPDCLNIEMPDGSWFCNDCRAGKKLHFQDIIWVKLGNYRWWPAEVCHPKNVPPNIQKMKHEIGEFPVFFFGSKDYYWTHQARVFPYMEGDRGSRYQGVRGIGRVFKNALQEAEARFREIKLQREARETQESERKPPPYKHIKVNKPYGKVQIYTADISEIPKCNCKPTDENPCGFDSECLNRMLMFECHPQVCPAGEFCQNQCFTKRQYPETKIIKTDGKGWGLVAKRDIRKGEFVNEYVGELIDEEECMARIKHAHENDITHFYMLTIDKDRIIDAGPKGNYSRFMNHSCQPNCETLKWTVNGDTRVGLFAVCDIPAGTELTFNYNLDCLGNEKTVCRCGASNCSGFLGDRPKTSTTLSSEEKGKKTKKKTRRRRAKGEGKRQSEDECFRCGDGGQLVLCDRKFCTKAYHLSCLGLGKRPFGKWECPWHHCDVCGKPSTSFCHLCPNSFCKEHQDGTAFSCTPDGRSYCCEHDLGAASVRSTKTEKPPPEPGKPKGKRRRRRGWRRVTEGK
Format: biochemical.

The target in assay [11] is Induced myeloid leukemia cell differentiation protein Mcl-1 (Homo sapiens, UniProt Q07820). Format: functional.
The target in assay [12] is Eukaryotic translation initiation factor 4E (Mus musculus, UniProt P63073). The assay is described as follows: blockers of eIF4G binding by eIF4E – biochemical, TR-FRET, dose response (AID 855).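 Also: potency for disrupting eIF4E binding to eIF4GI seen as loss of FRET.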 Format: functional.
For assay [13], the target named is T5, Ubiquitin-conjugating enzyme E2 N (Homo sapiens, UniProt P61088).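 Also: Dose-response confirmation in a TR-FRET assay detecting UBC13-driven polyubiquitin chain formation, inhibition measured.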
T5 sequence (P61088 whole entry): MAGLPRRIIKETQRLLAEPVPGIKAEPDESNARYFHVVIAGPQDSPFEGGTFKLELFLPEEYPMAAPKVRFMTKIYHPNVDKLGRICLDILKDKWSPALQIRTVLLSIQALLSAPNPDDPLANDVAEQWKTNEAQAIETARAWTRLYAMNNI
Format: functional.

The next assay deals with Aurora kinase A (Homo sapiens, UniProt O14965). It is filed as functional.
A further assay concerns the target Aurora kinase B (Homo sapiens, UniProt Q96GD4). It is filed as functional.
Assay [14] has as its target T6, Apoptotic protease-activating factor 1 (Homo sapiens, UniProt O14727).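 Also: caspase-3 cleavage of fluorogenic Rh110 DEVD substrate downstream of apoptosome activation.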
T6 sequence (O14727 whole entry): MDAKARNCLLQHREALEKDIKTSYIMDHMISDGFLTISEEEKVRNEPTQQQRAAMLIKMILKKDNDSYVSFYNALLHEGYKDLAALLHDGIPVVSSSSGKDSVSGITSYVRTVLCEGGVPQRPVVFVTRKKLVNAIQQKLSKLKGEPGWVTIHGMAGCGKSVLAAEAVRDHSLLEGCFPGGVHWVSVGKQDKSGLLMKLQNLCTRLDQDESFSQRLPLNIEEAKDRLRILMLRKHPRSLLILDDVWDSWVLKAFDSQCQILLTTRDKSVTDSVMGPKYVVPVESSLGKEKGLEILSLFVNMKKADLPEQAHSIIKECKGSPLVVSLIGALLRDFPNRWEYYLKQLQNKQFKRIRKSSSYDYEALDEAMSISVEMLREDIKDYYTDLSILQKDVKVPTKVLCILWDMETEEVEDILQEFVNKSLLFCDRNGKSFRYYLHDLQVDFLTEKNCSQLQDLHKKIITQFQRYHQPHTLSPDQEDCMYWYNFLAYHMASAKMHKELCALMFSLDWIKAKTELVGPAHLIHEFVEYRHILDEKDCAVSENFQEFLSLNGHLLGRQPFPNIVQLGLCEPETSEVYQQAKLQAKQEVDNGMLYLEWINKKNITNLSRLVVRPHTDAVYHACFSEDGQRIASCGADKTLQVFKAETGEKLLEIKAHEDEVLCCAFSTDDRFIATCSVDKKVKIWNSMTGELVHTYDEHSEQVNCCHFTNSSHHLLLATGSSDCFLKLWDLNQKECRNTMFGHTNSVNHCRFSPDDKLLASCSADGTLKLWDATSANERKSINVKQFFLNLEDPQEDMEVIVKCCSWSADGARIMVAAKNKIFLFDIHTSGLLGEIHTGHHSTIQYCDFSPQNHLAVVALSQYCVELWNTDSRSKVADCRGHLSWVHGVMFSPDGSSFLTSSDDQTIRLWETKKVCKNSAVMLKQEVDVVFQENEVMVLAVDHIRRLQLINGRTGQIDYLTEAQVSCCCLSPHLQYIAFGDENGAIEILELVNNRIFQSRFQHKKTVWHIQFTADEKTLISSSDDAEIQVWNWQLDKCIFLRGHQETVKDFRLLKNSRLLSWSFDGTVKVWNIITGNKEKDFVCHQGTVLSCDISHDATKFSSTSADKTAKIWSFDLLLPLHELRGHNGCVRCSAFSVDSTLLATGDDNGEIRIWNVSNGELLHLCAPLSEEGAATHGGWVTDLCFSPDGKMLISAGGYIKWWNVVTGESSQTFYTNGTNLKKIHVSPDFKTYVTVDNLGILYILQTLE
The assay is described as follows: SAR analysis of small molecule Activators of Apaf-1 in a Fluorescent assay. It is filed as functional. Particulars: read-out: EC50_Mean.

Structures are written as SMILES. Calls of active or inactive are those of the source.

T1 sequence (P32245 whole entry): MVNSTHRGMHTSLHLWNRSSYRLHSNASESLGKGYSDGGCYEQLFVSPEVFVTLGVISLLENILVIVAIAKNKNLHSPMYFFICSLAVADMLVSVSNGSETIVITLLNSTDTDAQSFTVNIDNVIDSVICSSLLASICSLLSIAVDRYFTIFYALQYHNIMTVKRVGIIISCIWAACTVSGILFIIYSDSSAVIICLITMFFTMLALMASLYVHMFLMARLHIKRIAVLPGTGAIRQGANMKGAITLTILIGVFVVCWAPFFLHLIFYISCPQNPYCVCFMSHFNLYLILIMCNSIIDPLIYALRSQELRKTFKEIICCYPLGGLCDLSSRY
Chain of 72 kDa type IV collagenase (P08253 whole entry, the tested form may be a part): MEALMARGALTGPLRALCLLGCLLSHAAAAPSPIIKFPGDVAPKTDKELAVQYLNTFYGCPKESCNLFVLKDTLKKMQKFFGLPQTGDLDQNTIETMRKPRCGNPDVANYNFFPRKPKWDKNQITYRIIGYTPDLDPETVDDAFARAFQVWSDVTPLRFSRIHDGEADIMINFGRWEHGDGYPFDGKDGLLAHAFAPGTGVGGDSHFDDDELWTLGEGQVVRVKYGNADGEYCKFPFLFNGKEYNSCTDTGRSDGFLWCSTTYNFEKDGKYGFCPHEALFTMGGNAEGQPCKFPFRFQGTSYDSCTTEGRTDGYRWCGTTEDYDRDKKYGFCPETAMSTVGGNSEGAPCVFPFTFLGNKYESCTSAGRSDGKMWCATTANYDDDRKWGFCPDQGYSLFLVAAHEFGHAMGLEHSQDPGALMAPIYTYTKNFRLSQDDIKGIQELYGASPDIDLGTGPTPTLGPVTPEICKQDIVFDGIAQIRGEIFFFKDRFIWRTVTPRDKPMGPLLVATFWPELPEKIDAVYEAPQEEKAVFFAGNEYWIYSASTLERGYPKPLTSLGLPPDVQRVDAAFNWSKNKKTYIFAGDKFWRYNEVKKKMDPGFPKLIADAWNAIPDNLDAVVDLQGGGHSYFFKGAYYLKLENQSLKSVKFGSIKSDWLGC
Chain of 26S proteasome non-ATPase regulatory subunit 14 (O00487 whole entry): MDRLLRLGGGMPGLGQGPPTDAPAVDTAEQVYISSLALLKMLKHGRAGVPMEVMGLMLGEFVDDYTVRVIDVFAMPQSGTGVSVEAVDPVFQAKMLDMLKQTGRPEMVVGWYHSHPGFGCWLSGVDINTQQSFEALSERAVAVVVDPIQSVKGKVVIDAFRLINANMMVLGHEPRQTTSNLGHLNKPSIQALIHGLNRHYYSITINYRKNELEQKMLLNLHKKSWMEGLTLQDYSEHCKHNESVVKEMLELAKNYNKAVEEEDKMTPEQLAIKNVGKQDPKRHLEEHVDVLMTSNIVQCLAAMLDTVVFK
Chain of Eukaryotic translation initiation factor 4E (P63073 whole entry): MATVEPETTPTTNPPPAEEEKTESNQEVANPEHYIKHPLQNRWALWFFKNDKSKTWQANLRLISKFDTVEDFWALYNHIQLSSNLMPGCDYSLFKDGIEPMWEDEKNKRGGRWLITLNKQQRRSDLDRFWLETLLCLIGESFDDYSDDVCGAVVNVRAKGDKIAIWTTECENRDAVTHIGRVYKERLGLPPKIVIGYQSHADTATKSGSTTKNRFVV
Chain of Aurora kinase A (O14965 whole entry): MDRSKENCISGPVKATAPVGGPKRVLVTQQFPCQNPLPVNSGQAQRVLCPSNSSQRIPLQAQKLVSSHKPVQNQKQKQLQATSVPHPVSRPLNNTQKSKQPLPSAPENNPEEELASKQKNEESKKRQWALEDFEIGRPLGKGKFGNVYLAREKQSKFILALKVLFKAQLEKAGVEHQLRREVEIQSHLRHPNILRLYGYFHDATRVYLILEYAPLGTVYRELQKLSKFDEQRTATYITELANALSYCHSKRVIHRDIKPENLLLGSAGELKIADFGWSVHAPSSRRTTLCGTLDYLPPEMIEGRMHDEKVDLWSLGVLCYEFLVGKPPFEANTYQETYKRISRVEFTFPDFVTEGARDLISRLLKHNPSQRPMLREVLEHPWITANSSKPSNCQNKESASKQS
Chain of Induced myeloid leukemia cell differentiation protein Mcl-1 (Q07820 whole entry): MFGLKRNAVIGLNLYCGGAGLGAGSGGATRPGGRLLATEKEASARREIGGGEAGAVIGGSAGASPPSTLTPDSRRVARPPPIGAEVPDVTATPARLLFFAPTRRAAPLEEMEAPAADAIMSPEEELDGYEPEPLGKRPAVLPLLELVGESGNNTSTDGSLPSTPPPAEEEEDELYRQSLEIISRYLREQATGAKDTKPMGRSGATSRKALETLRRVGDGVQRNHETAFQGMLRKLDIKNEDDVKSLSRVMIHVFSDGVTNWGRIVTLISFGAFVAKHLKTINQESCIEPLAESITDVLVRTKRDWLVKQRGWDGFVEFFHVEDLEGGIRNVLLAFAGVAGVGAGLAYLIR
Chain of Aurora kinase B (Q96GD4 whole entry): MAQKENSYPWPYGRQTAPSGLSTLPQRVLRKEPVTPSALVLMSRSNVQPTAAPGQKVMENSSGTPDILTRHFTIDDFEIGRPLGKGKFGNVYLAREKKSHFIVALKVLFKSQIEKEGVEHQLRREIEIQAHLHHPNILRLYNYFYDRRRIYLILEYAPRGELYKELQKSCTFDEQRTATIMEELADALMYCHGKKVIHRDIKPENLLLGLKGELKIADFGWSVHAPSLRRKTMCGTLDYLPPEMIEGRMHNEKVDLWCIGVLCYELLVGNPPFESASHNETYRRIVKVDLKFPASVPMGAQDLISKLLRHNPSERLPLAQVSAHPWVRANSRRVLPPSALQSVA
Chain of Large T antigen (P03070 whole entry): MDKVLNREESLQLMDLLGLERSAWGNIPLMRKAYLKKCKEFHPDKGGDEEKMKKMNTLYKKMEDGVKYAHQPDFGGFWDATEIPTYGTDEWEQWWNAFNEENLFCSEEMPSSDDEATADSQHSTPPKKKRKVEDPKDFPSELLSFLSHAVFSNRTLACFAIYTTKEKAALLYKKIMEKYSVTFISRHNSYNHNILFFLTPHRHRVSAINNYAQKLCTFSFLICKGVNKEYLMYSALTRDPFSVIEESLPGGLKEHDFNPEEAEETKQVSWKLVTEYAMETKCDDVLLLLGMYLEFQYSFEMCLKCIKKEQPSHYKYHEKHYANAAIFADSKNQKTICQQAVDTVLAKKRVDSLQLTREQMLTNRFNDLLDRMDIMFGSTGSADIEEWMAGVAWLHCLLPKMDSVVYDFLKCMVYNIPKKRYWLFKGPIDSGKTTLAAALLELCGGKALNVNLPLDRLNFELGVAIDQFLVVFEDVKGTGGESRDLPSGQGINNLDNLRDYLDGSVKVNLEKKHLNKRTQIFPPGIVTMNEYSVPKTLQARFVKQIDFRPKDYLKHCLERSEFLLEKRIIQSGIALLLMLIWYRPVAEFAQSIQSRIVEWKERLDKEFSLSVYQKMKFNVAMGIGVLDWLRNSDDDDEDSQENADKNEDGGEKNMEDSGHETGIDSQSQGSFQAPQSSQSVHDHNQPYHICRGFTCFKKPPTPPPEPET
Chain of Low molecular weight phosphotyrosine protein phosphatase (P24666 whole entry): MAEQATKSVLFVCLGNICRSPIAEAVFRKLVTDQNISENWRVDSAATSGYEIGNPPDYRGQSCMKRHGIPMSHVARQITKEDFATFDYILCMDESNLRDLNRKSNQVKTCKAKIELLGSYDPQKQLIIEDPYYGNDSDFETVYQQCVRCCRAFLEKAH
Chain of Genome polyprotein (P29990 2492-3391 limits assumed): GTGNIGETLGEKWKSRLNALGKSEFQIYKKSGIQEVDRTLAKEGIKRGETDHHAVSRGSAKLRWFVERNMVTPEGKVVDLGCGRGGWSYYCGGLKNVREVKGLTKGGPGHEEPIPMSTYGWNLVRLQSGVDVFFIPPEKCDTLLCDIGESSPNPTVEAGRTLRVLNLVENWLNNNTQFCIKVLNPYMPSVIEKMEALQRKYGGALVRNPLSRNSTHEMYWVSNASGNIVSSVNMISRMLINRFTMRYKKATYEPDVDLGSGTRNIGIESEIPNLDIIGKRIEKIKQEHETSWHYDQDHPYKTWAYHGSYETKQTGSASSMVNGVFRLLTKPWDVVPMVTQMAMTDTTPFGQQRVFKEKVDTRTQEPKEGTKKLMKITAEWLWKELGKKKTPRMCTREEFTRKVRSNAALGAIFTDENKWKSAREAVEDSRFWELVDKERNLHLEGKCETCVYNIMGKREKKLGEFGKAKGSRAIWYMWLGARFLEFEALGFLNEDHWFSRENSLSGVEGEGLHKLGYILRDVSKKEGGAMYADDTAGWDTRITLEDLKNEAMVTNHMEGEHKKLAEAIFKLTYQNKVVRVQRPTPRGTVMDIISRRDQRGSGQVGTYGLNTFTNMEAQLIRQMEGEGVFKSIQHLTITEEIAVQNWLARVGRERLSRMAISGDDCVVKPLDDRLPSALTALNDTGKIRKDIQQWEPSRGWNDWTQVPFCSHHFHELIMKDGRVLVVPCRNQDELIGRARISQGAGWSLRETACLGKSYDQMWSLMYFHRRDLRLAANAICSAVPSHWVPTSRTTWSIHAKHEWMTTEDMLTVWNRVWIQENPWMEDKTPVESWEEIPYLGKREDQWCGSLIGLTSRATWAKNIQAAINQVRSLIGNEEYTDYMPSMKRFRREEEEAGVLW

Take `CCn1cc(C(=O)O)c(=O)c2cc(F)c(N3CCN(C(=S)NC(=O)c4ccccc4C)CC3)cc21`: the IC50 in assay [1] is 7.19 µM (active). In addition, the AC50 – broadly, the midpoint of the concentration-response curve, whichever way the signal moves – in the assay with Escherichia coli is 8.2 µM (active).
For the compound `O=C(CSc1ccccc1)Nc1nnc(/C=C/c2ccccc2)s1`, the EC50 at Melanocortin receptor 4 [2] was > 89.2 µM (inactive).
For `Cc1ccc(-n2nnc3c(=O)n(CC(=O)NCc4ccccc4)cnc32)cc1`, the IC50 at Prothrombin was > 100 µM (inactive); in assay [3], 12.7 µM (active); in assay [4], 5.33 µM (active); in assay [5], 24.8 µM (active).
Take `COc1ccc(-c2oc3ccc(N4CCOCC4)cc3c2C#CC2(O)CCCCC2)cc1`: the EC50 at Streptokinase A is > 150 µM (not active); in assay [8], 3.68 µM (active); in the assay on Streptococcus, 8.25 µM (active). Also, the IC50 (in [6]; at Melanocortin receptor 4 [7]) was > 64.6 µM (inactive) each time.
As for `O=C1NN(c2ccc(Cl)cc2)C(=O)/C1=C\c1ccc(-c2cccc(C(=O)O)c2)o1`, the IC50 on Large T antigen is 27.1 µM (active); at Genome polyprotein, 77.3 µM (active); at Prothrombin, 19.8 µM (active); in assay [3], 56.7 µM (active); in assay [9], 7.39 µM (active); in assay [11], 3.21 µM (active). Further, the IC50 was 10.9 µM (active) in [5] and 50 µM (inactive) in [12]. For the same compound, in assay [10], the AC50 is > 20 µM (inactive).
In the case of `CC(C)[C@H](CN1CCC[C@H]1CN1C(N)=NC[C@H]1C(C)C)N1C[C@@H](Cc2ccccc2)N(CCCC2CCCC2)C1=N`, the IC50 in [13] was > 20 µM (inactive); in assay [6], > 64.5 µM (inactive); on Melanocortin receptor 4 [7] it was 17.7 µM (inactive).
Take `COCCOC1CCC(n2nc(-c3ccc(Nc4nc5cc(Cl)cc(C)c5o4)c(F)c3)c3c(N)ncnc32)CC1` (configuration not stated): the values for the inhibition constant (Ki) on Aurora kinase A and at Aurora kinase B were 0.126 µM (active) and 0.00794 µM (active), respectively.
For the compound `CC(CNc1ccccc1Cl)C(=O)O` (configuration not stated), in [14], the EC50 was > 100 µM (inactive).

Values taken from ChEMBL document CHEMBL1201862, “PubChem BioAssay data set” (2004).
